Experimental data: patent publication US6693072B2, “Elastase inhibitors” (Aventis Pharmaceuticals Inc., priority 1994, dated 2004)

How the values were obtained:
[1] = target: human neutrophil elastase (human) (UniProt P08246); assay: in vitro enzyme inhibition kinetics of human neutrophil elastase, substrate N-MeOSuc-Ala-Ala-Pro-Val-p-nitroanilide
[2] = target: T1, human neutrophil elastase (Homo sapiens, UniProt P08246); assay: Human neutrophil elastase in vitro inhibition assay, N-MeOSuc-Ala-Ala-Pro-Val-p-nitroanilide substrate; assay type: biochemical; conditions: for human neutrophil elastase, using N-MeOSucAlaAlaProVal-pNA as substrate; enzyme purified from human sputum
T1 construct: Enzyme is purified from human sputum, although recently it has become commercially available; from tissue; host or cells: human sputum
T1 sequence (P08246 30-247 limits assumed): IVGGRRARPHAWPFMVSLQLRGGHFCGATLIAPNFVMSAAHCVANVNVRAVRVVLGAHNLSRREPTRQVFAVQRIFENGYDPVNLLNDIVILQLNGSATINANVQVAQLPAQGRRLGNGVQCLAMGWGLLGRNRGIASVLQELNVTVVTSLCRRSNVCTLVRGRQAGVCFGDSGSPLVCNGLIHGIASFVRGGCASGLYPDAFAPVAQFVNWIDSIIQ
Procedure: Human neutrophil elastase is assayed in vitro using N-MeOSuc-[…]-nitroanilide, available commercially, as substrate. The assay buffer, pH and assay techniques are similar to those described by Mehdi, et al., Biochemical and Biophysical Research Communications, 166, 595 (1990). Enzyme is purified from human sputum, although recently it has become commercially available. Kinetic characterization of immediate inhibitors is by means of the Dixon plot, whereas the characterization of slow- and/or tight-binding inhibitors used data analysis techniques reviewed by Williams and Morrison. The synthesis and analytical use of a highly sensitive and convenient substrate of elastase is described in J. Bieth, B. Spiess and C. G. Wermuth, Biochemical Medicine, 11 (1974)350-375.

Ki [2] | Molecule | Ki [1]
 | N-[4-(4-morpholinylcarbonyl)benzoyl]-L-valyl-N'-[3,3,4,4,4-pentafluoro-1-(1-methylethyl)-2-oxobutyl]-trans-4-acetoxyprolinamide (peptide) | 40 nM
34 nM | CC(C)C(NC(=O)[C@H]1CCN1C(=O)[C@@H](NC(=O)c1ccc(C(=O)N2CCOCC2)cc1)C(C)C)C(=O)C(F)(F)C(F)(F)F (stereo partly drawn) [MDL 104,238, N-[4-(4-morpholinylcarbonyl)benzoyl]-L-valyl-N′-[3,3,4,4,4-pentafluoro-1-(1-methylethyl)-2-oxobutyl]-L-2-azetamide] | 
150 nM | CC(C)C(NC(=O)C1CCCCN1C(=O)[C@@H](NC(=O)c1ccc(C(=O)N2CCOCC2)cc1)C(C)C)C(=O)C(F)(F)C(F)(F)F (mixture of isomers) [MDL 105,759, N-[4-(4-morpholinylcarbonyl)benzoyl]-L-valyl-N′-[3,3,4,4,4-pentafluoro-1-(1-methylethyl)-2-oxobutyl]-D,L-2-pipecolinamide] | 
20 nM | CC(C)C(NC(=O)[C@H]1C[C@@H](OCc2ccccc2)CN1C(=O)[C@@H](NC(=O)c1ccc(C(=O)N2CCOCC2)cc1)C(C)C)C(=O)C(F)(F)C(F)(F)F (stereo partly drawn) [MDL 104,865, N-[4-(4-morpholinylcarbonyl)benzoyl]-L-valyl-N′-[3,3,4,4,4-pentafluoro-1-(1-methylethyl)-2-oxobutyl]-trans-4-benzyloxyprolinamide] | 
